Patent US10028961B2, “Therapeutically active compounds and their methods of use” (AGIOS PHARMACEUTICALS, INC., priority 2013, dated 2018)
Like-named read-outs stand apart in the source and are kept apart here.

What was measured:
[1] = biological target: IDH1 wt/IDH1 R132H heterodimer (Homo sapiens (Human), UniProt O75874, R132H); assay: In vitro assay for IDH1m R132H inhibitors, IDH1 wt/IDH1 R132H heterodimer, NADPH depletion (diaphorase/resazurin); format: biochemical
How it was run: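 Purified IDH1wt-his/IDH1R132H-flag heterodimer (sf9 co-expression) pre-incubated 1 hr at room temperature with compound and NADPH before α-KG addition. Remaining NADPH read by diaphorase/resazurin conversion to fluorescent resorufin, 5 min at 25° C. Compounds diluted 1:50 from DMSO; IC50 determined.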

[2] = test system: U87MG pLVX-IDH2 R140Q-neo cells; assay: U87MG pLVX-IDH2 R140Q-neo cell based assay, 2-HG by LC-MS; conditions: Homo sapiens, U-87 MG
IDH2 R140Q = IDH2 R140Q (Homo sapiens (Human), UniProt P48735, R140Q); assay: In vitro assay for IDH2m R140Q inhibitors, cofactor depletion assay; format: biochemical; conditions: IDH2 R140Q enzyme
IDH2 R140Q, sequence (P48735 40-452 R140Q): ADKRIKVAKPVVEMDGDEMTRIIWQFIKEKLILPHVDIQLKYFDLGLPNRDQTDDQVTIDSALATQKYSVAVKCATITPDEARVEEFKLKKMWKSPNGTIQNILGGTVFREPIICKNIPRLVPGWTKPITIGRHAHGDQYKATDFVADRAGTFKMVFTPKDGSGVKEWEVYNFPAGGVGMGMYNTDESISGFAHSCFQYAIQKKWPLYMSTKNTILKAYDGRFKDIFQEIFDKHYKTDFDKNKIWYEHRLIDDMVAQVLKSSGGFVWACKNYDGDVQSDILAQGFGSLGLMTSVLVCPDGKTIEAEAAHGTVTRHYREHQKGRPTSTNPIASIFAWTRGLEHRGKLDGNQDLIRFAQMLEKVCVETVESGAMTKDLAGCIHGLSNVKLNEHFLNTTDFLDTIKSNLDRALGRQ
How it was run: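 Remaining cofactor measured fluorimetrically: diaphorase/resazurin Stop Mix […], halting the reaction. Before that, mutant enzyme and compound sat 1 h at RT, then substrate mix (4 μM NADPH, 1.6 mM α-KG) was added for 16 h at RT.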

[3] = test system: Neurosphere cells (TS603); assay: Cellular assay for IDH1m R132H inhibitors, 2-HG by LC-MS in neurosphere cells (TS603); format: cell-based; conditions: 2-HG in media at 48 hours
Protocol: Cellular Assay for IDH1m R132H Inhibitors.
The following describes the experimental procedures that can be used to obtain data in column 4 of Table 5.
Neurosphere cells (TS603) are grown at 37 C in 5% CO2 in Stem Cell Technologies NeuroCult™ NS-A media supplemented with 1% Primocin, 1% Normocin, 0.0002% Heparin, 20 ng/mL EGF and 10 ng/mL bFGF. Cells are harvested, pelleted and resuspended in Accumax for cell dissociation and counting. Cells are counted and then resuspended in NeuroCult media with 2× heparin, EGF and bFGF at 4 million cells/10 mL media. 100 μl of cell solution are plated in each well of a 96 well with the exception of columns 1 and 12. Columns 1 and 12 contain 200 μL PBS. Compound dose responses are set up at a 2× concentration in Neurocult media without heparin, EGF and bFGF. The final concentration of DMSO is 0.25%. DMSO only control wells are plated in row H. The plates are then placed in the incubator for 48 hours. At 48 hours, 100 μl of media is removed from each well and analyzed by LC-MS for 2-HG concentrations. The cell plate is placed back in the incubator for another 24 hours. At 72 hours post compound addition, 10 mL/plate of Promega Cell Titer Glo reagent is thawed and mixed. The cell plate is removed from the incubator and allowed to equilibrate to room temperature. Then 100 μl of Promega Cell Titer Glo reagent is added to each well of media. The cell plate is then placed on an orbital shaker for 10 minutes and then allowed to sit at room temperature for 20 minutes. The plate is then read for luminescence with an integration time of 500 ms.

[4] = biological target: IDH1-R132H homodimer enzyme (Homo sapiens (Human), UniProt O75874, R132H); assay: In vitro assay IDH1-R132H homodimer, NADPH depletion assay with NADPH/NADP preincubation; format: biochemical; conditions: 5 μM NADPH and 37.5 μM NADP
IDH1-R132H homodimer enzyme, sequence (O75874 whole entry R132H): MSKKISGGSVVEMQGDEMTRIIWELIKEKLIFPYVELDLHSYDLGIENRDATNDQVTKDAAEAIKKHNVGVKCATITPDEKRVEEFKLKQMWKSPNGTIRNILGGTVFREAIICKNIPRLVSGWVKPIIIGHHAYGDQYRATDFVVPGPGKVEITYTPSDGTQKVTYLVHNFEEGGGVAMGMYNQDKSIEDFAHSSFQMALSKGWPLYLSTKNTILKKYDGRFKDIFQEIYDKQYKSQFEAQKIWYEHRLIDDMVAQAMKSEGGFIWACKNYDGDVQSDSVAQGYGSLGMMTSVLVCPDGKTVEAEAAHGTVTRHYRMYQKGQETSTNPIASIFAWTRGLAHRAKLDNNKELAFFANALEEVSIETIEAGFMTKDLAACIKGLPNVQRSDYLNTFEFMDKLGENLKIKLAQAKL
Protocol: The following describes the experimental procedures that can be used to obtain data on columns 3 and 5 of Table 5.
A test compound is prepared as 10 mM stock in DMSO and diluted to 50× final concentration in DMSO, for a 50 μl reaction mixture. IDH enzyme activity converting alpha-ketoglutarate to 2-hydroxyglutaric acid is measured using a NADPH depletion assay. In the assay the remaining cofactor is measured at the end of the reaction with the addition of a catalytic excess of diaphorase and resazurin, to generate a fluorescent signal in proportion to the amount of NADPH remaining. […] The reaction is started with the addition of 10 μl of Substrate Mix ([…], 5 mM alpha-ketoglutarate, in Assay Buffer) and the mixture is incubated for 60 minutes at room temperature.

[5] = IDH1 wt/R132H heterodimer, NADPH/NADP, not saturated, read-out: IDH1 wt/R132H NADPH/NADP IC50 not saturated
[6] = IDH1 wt/IDH1 R132H heterodimer, 300 μM NADP (saturated), read-out: IDH1 wt/R132H NADPH/NADP IC50 saturated

IDH1 wt/IDH1 R132H heterodimer, sequence (O75874 whole entry R132H): as above
IDH1 wt/IDH1 R132H heterodimer, sequence (O75874 whole entry, stated change not applied): as the sequence (O75874 whole entry R132H) above, with H132R counted along it

SMILES | IC50 [1, 5] [nM] | IC50 [2] [nM] | IC50 (IDH2 R140Q) [nM] | IC50 [3] [nM] | IC50 [4] [nM] | IC50 [1, 6] [nM]
Cn1cc(-c2nc(NC3CCC(F)(F)CC3)nc(NC3CCC(F)(F)CC3)n2)c(C(F)(F)F)n1 [Compound 275] | 100 to 1000 |  |  |  | > 1000 | 
CC(F)(F)c1nc(-c2nc(NC3CCC(F)(F)CC3)nc(NC3CCC(F)(F)CC3)n2)cs1 [Compound 283] | 100 to 1000 | 100 to 1000 | 100 to 1000 |  | > 1000 | 
Oc1ccc(F)c(-c2nc(NC3CCC(F)(F)CC3)nc(NC3CCC(F)(F)CC3)n2)n1 [Compound 309] | > 1000 |  |  |  | > 1000 | 
COCCc1ccnc(-c2nc(NC3CCC(F)(F)CC3)nc(NC3CCC(F)(F)CC3)n2)n1 [Compound 315] | > 1000 |  |  |  | > 1000 | 
Cc1nc(-c2nc(NC3CC(F)(F)C3)nc(NC3CC(F)(F)C3)n2)c[nH]1 [Compound 317] | > 1000 |  |  |  | > 1000 | 
Cc1nc(-c2nc(NC3CCC(F)(F)C3)nc(NC3CCC(F)(F)C3)n2)c[nH]1 (stereo not drawn) [Compound 319] | > 1000 |  |  |  | > 1000 | 
Cc1nsc(-c2nc(NC3CCC(F)(F)CC3)nc(NC3CCC(F)(F)CC3)n2)n1 [Compound 328] | > 1000 |  |  |  | > 1000 | 
Cc1nc(-c2nc(NC3CCC(F)(F)CC3)nc(NC3CCC(F)(F)CC3)n2)c[nH]1 [Compound 332] | > 1000 |  |  |  | > 1000 | 
FC1(F)CCC(Nc2nc(NC3CCC(F)(F)CC3)nc(-c3nc(-c4ccccc4)ns3)n2)CC1 [Compound 333] | > 1000 |  |  |  | > 1000 | 
CC[C@H](Nc1nc(N[C@@H](CC)C(F)(F)F)nc(-n2ccc(C(F)(F)F)n2)n1)C(F)(F)F [Compound 363] |  | 50 to 100 | 50 to 100 | < 50 |  | < 50
N#CC1(c2cc(Nc3nc(N[C@@H]4CCC(F)(F)C4)nc(-c4nccc(C(F)(F)F)n4)n3)ccn2)CC1 [Compound 375] |  | < 50 | < 50 | < 50 |  | 100 to 1000
FC(F)(F)c1cc(Nc2nc(NCC3CC3)nc(-c3nc(C(F)(F)F)cs3)n2)ccn1 [Compound 379] |  | < 50 | < 50 | < 50 |  | 50 to 100
FC1(F)CC2(CC(Nc3nc(Nc4ccnc(C(F)(F)F)c4)nc(-c4cncc(C(F)(F)F)n4)n3)C2)C1 [Compound 380] |  | < 50 | < 50 | < 50 |  | 100 to 1000
C[C@@H](Nc1nc(Nc2ccnc(-c3ccc(C#N)cc3)c2)nc(-c2cccc(C(F)(F)F)n2)n1)C(F)(F)F [Compound 383] |  | < 50 | < 50 | < 50 |  | 100 to 1000
FC(F)(F)c1cc(Nc2nc(NCC3CC3)nc(-c3cncc(C(F)(F)F)n3)n2)ccn1 [Compound 387] |  | < 50 | < 50 | < 50 |  | 100 to 1000
FC1(F)CCC(Nc2nc(NC3CCC(F)(F)C3)nc(-c3cccc(C(F)(F)F)n3)n2)CC1 (stereo not drawn) [Compound 395] |  | < 50 | < 50 | < 50 |  | < 50
FC1(F)CC[C@@H](Nc2nc(N[C@H]3CCC(F)(F)C3)nc(-c3cncc(C(F)(F)F)n3)n2)C1 [Compound 399] |  | < 50 | < 50 | < 50 |  | < 50
FC1(F)CC[C@H](Nc2nc(N[C@H]3CCC(F)(F)C3)nc(-c3cncc(C(F)(F)F)n3)n2)C1 [Compound 406] |  | < 50 | < 50 | < 50 |  | < 50
FC1(F)CCC(Nc2cc(NC3CCC(F)(F)CC3)nc(-c3cncc(C(F)(F)F)n3)n2)CC1 [Compound 421] | 100 to 1000 |  |  |  | 100 to 1000 | 

Second part, the molecule after the results:

IC50 [1, 5] [nM] | IC50 [2] [nM] | IC50 (IDH2 R140Q) [nM] | IC50 [3] [nM] | IC50 [4] [nM] | IC50 [1, 6] [nM] | SMILES
< 50 | < 50 | < 50 | < 50 | < 50 |  | Fc1cc(F)cc(Nc2nc(NC3CC(F)(F)C3)nc(-c3cncc(Cl)n3)n2)c1 [Compound 120]
< 50 | < 50 | < 50 | < 50 | < 50 |  | FC1(F)CCC(Nc2nc(NC3CCC(F)(F)C3)nc(-c3cncc(C(F)(F)F)n3)n2)C1 (stereo not drawn) [Compound 138]
< 50 | < 50 | < 50 | < 50 | < 50 |  | FC1(F)CC[C@@H](Nc2nc(Nc3ccnc(C(F)(F)F)c3)nc(-c3cccc(C(F)(F)F)n3)n2)C1 [Compound 172]
< 50 | < 50 | < 50 | < 50 | < 50 |  | FC1(F)CCC(Nc2nc(Nc3ccnc(C(F)(F)F)c3)nc(-n3ccc(C(F)(F)F)n3)n2)C1 (stereo not drawn) [Compound 173]
< 50 | < 50 | < 50 | < 50 | 50 to 100 |  | CC(Nc1nc(Nc2ccnc(C(F)(F)F)c2)nc(-n2ccc(C(F)(F)F)n2)n1)C(F)(F)F (stereo not drawn) [Compound 177]
< 50 | < 50 | < 50 | < 50 | < 50 |  | N#CC1(c2cc(Nc3nc(NC4CCC(F)(F)C4)nc(-n4ccc(C(F)(F)F)n4)n3)ccn2)CC1 (stereo not drawn) [Compound 185]
 | < 50 | < 50 | < 50 |  | 50 to 100 | CC(F)(F)c1cc(Nc2nc(NC3CCC(F)(F)CC3)nc(-c3cccc(C(F)(F)F)n3)n2)ccn1 [Compound 361]
 | < 50 | < 50 | < 50 |  | 50 to 100 | C[C@@H](Nc1nc(Nc2ccnc(-c3ccc(Cl)cc3)c2)nc(-c2cccc(C(F)(F)F)n2)n1)C(F)(F)F [Compound 364]
 | < 50 | < 50 | < 50 |  | 50 to 100 | FC(F)(F)c1cc(Nc2nc(NCC3CC3(F)F)nc(-c3cccc(C(F)(F)F)n3)n2)ccn1 (stereo not drawn) [Compound 365]
 | < 50 | < 50 | < 50 |  | < 50 | CC(F)(F)c1cncc(-c2nc(NC3CC(F)(F)C3)nc(NC3CC(F)(F)C3)n2)n1 [Compound 366]
 | < 50 | < 50 | < 50 |  | < 50 | Fc1cc(F)cc(Nc2nc(NC3CCC(F)(F)CC3)nc(-c3cncc(C(F)(F)F)n3)n2)c1 [Compound 367]
 | < 50 | < 50 | < 50 |  | < 50 | Fc1cc(F)cc(Nc2nc(N[C@@H]3CCC(F)(F)C3)nc(-c3cncc(C(F)(F)F)n3)n2)c1 [Compound 369]
 | < 50 | < 50 | < 50 |  | < 50 | CC(F)(F)c1cncc(-c2nc(NC3CCC(F)(F)C3)nc(NC3CCC(F)(F)C3)n2)n1 (stereo not drawn) [Compound 370]
 | < 50 | < 50 | < 50 |  | < 50 | C[C@@H](Nc1nc(Nc2ccnc(-c3ccc(F)cc3)c2)nc(-c2cccc(C(F)(F)F)n2)n1)C(F)(F)F [Compound 371]
 | < 50 | < 50 | < 50 |  | < 50 | CC(F)(F)c1cccc(-c2nc(Nc3ccnc(C4(C#N)CC4)c3)nc(NC3CC(F)(F)C3)n2)n1 [Compound 372]
 | < 50 | < 50 | < 50 |  | < 50 | N#CC1(c2cc(Nc3nc(N[C@H]4CCC(F)(F)C4)nc(-c4cncc(C(F)(F)F)n4)n3)ccn2)CC1 [Compound 373]
 | < 50 | < 50 | < 50 |  | 50 to 100 | CC(F)(F)c1cncc(-c2nc(NC3CCC(F)(F)CC3)nc(NC3CCC(F)(F)CC3)n2)n1 [Compound 374]
